Each compound was assayed on Mycobacterium tuberculosis (assay: Antimycobacterial activity against Mycobacterium tuberculosis by NCCLS agar dilution method).
Assay type: functional
In the case of `CC(C)(C)n1cc(C(=O)O)c(=O)c2cc([N+](=O)[O-])c(N3CCN(C(c4ccccc4)c4ccc(Cl)cc4)CC3)cc21` (stereo unspecified), the “-logMIC” value is reported as 5.264.
`CC(C)(C)NC(=O)C1c2ccccc2CCN1c1cc2c(cc1[N+](=O)[O-])c(=O)c(C(=O)O)cn2-c1ccc(F)cc1` (stereo unspecified) was tested, and the “-logMIC” value was 5.252.
With `O=C(O)c1cn(-c2ccc(F)cc2)c2cc(N3CCN(C(c4ccccc4)c4ccc(Cl)cc4)CC3)c([N+](=O)[O-])cc2c1=O` (stereo unspecified) the “-logMIC” value was 4.992.
`Cc1onc(-c2c(F)cccc2F)c1C(=O)N1CCN(c2cc3c(cc2[N+](=O)[O-])c(=O)c(C(=O)O)cn3-c2ccc(F)cc2)CC1` was tested, and the “-logMIC” value was 5.306.
For `O=C(O)c1cn(-c2ccc(F)cc2)c2cc(N3CCN(C(=O)C4COc5ccccc5O4)CC3)c([N+](=O)[O-])cc2c1=O` (stereo unspecified), the “-logMIC” value was 5.565.
`O=C(O)c1cn(-c2ccc(F)cc2)c2cc(N3CCC(N4CCCCC4)CC3)c([N+](=O)[O-])cc2c1=O` was tested, and the “-logMIC” value was 5.199.
`O=C(O)c1cn(-c2ccc(F)cc2)c2cc(N3CCSCC3)c([N+](=O)[O-])cc2c1=O` was tested, and the “-logMIC” value was 4.837.
For `CC(C)(C)n1cc(C(=O)O)c(=O)c2cc([N+](=O)[O-])c(N3CCSCC3)cc21`, the “-logMIC” value was 5.097.
For `CC(C)(C)n1cc(C(=O)O)c(=O)c2cc([N+](=O)[O-])c(N3CCn4cc(C(=O)O)nc4C3)cc21`, the “-logMIC” value was 5.163.
`CC1CN(c2cc3c(cc2[N+](=O)[O-])c(=O)c(C(=O)O)cn3C2CC2)CC(C)O1` (stereo unspecified) was tested, and the “-logMIC” value was 5.697.
With `O=C(O)c1cn(-c2ccc(F)cc2)c2cc(N3CCN(Cc4ccc5c(c4)OCO5)CC3)c([N+](=O)[O-])cc2c1=O` the “-logMIC” value was 5.545.
`O=C(O)c1cn(C2CC2)c2cc(N3CCN(C(c4ccccc4)c4ccc(Cl)cc4)CC3)c([N+](=O)[O-])cc2c1=O` (stereo unspecified) was tested, and the “-logMIC” value was 5.253.
In the case of `O=C(O)c1cn(-c2ccc(F)cc2)c2cc(N3CCN(C(=O)c4ccco4)CC3)c([N+](=O)[O-])cc2c1=O`, the “-logMIC” value is reported as 5.209.
In the case of `CC1CN(c2cc3c(cc2[N+](=O)[O-])c(=O)c(C(=O)O)cn3-c2ccc(F)cc2)CC(C)O1` (stereo unspecified), the “-logMIC” value is reported as 5.452.
For `O=C(O)c1cn(C2CC2)c2cc(N3CCC(O)(c4ccc(Cl)cc4)CC3)c([N+](=O)[O-])cc2c1=O`, the “-logMIC” value was 6.092.
With `CCN(CC)C(=O)C1CCCN(c2cc3c(cc2[N+](=O)[O-])c(=O)c(C(=O)O)cn3-c2ccc(F)cc2)C1` (stereo unspecified) the “-logMIC” value was 5.213.
With `O=C(O)c1cn(C2CC2)c2cc(N3CCC(N4CCCCC4)CC3)c([N+](=O)[O-])cc2c1=O` the “-logMIC” value was 6.367.
For `CC(C)(C)n1cc(C(=O)O)c(=O)c2cc([N+](=O)[O-])c(N3CCC(n4c(=O)[nH]c5cc(Cl)ccc54)CC3)cc21`, the “-logMIC” value was 5.237.
`CC(C)(C)n1cc(C(=O)O)c(=O)c2cc([N+](=O)[O-])c(N3CCC4(CC3)OCCO4)cc21` was tested, and the “-logMIC” value was 5.128.
`CC(C)(C)n1cc(C(=O)O)c(=O)c2cc([N+](=O)[O-])c(N3CCN(C(=O)c4ccco4)CC3)cc21` was tested, and the “-logMIC” value was 5.175.
With `CCN(CC)C(=O)C1CCCN(c2cc3c(cc2[N+](=O)[O-])c(=O)c(C(=O)O)cn3C(C)(C)C)C1` (stereo unspecified) the “-logMIC” value was 5.179.
`O=C(O)c1cn(-c2ccc(F)cc2)c2cc(N3CCC4(CC3)OCCO4)c([N+](=O)[O-])cc2c1=O` was tested, and the “-logMIC” value was 5.176.
In the case of `O=C(O)c1cn(C2CC2)c2cc(N3CCN(C(=O)C4COc5ccccc5O4)CC3)c([N+](=O)[O-])cc2c1=O` (stereo unspecified), the “-logMIC” value is reported as 5.524.
For `COc1ccc(CC2C3=C(CCCC3)CCN2c2cc3c(cc2[N+](=O)[O-])c(=O)c(C(=O)O)cn3-c2ccc(F)cc2)cc1` (stereo unspecified), the “-logMIC” value was 5.271.
`O=C(O)c1cn(-c2ccc(F)cc2)c2cc(N3CCC(n4c(=O)[nH]c5cc(Cl)ccc54)CC3)c([N+](=O)[O-])cc2c1=O` was tested, and the “-logMIC” value was 5.266.
`CC(C)(C)n1cc(C(=O)O)c(=O)c2cc([N+](=O)[O-])c(N3CCN(Cc4ccc5c(c4)OCO5)CC3)cc21` was tested, and the “-logMIC” value was 5.513.
In the case of `O=C(O)c1cn2c(n1)CN(c1cc3c(cc1[N+](=O)[O-])c(=O)c(C(=O)O)cn3-c1ccc(F)cc1)CC2`, the “-logMIC” value is reported as 4.92.
In the case of `CC(C)(C)NC(=O)C1c2ccccc2CCN1c1cc2c(cc1[N+](=O)[O-])c(=O)c(C(=O)O)cn2C1CC1` (stereo unspecified), the “-logMIC” value is reported as 5.81.
In the case of `CN1CCN(c2cc3c(cc2[N+](=O)[O-])c(=O)c(C(=O)O)cn3C(C)(C)C)CC1c1ccccc1` (stereo unspecified), the “-logMIC” value is reported as 4.793.
For `O=C(O)c1cn(C2CC2)c2cc(N3CCSCC3)c([N+](=O)[O-])cc2c1=O`, the “-logMIC” value was 5.38.
For `CCN(CC)C(=O)C1CCCN(c2cc3c(cc2[N+](=O)[O-])c(=O)c(C(=O)O)cn3C2CC2)C1` (stereo unspecified), the “-logMIC” value was 5.466.
